Where a chain is given by its changes, count along the chain named. Like-named read-outs stand apart in the source and are kept apart here.
Columns and labels:
[1] = target: T1, BaF3-FLT3-ITD (Homo sapiens, UniProt P36888, INS600HVDFREYEYD, cells depend on it); test: CTB viability assay CS0046, BaF3-FLT3-ITD; type: cell-based, murine; settings: CellTiter Blue viability, 72 hours
T1 sequence (P36888 with tags, fused parts or gaps INS600HVDFREYEYD): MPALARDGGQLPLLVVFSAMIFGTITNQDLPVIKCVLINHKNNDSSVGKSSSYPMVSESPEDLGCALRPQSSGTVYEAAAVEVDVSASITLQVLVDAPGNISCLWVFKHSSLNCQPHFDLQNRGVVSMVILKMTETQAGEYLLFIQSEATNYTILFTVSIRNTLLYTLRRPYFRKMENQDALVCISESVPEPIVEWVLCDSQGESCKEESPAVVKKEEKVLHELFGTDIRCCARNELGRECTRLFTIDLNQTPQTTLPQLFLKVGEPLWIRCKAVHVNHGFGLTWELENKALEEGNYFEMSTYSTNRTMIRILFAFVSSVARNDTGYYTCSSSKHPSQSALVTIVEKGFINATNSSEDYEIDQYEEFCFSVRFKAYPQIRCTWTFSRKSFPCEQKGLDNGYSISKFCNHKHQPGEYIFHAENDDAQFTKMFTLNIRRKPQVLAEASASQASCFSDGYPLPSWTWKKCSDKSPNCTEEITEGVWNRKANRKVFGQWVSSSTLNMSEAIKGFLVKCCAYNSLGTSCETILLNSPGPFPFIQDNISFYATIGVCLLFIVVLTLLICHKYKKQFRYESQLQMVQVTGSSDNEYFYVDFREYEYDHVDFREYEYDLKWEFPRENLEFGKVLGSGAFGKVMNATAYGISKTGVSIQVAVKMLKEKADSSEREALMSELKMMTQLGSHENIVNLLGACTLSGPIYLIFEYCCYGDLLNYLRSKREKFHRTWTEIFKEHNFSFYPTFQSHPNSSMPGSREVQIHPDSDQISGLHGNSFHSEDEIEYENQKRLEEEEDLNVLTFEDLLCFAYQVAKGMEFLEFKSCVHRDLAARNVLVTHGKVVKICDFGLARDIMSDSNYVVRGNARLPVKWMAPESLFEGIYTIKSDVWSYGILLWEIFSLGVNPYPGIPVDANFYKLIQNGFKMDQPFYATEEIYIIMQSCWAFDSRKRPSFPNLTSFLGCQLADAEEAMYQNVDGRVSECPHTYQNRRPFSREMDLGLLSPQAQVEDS
Description: (§1) Gene constructs containing the human FLT3 sequences FLT3-ITD, FLT3-ITD-F691L, FLT3-ITD-D835V and FLT3-D835V were synthesized by reverse translation of the human protein sequences, with codons optimized for mammalian expression. Sequence of the internal tandem duplication (ITD) was based on the MV4-11 ITD sequence. Synthetic DNA constructs were cloned into the pMSCV puro retroviral vector (Clontech) and transfected into the EcoPack2-293 packaging cell line (Clontech) to generate retroviruses that contain the different FLT3 constructs. Viruses were transduced into the IL-3-dependent, murine […] cell line, Ba/F3, and selected for puromycin resistance and IL-3 independence. All cell lines were cloned by limiting dilution and clones were used for all subsequent cell assays. Overexpression of the FLT3 mutants in the Ba/F3 cells results in constitutive phosphorylation of the exogenous FLT3 protein, which is required for IL-3 independence.
(§2) Cell lines were serum starved overnight in media containing 0.5% FBS, plated at 15,000 cells/well in 96-well white-walled tissue culture plates, and 3-fold serial dilutions of test compounds of Formula I were added for 72 hours at 37° C. CellTiter Blue (CTB, Promega) was added and incubated for an additional 3 hours at 37° C. Fluorescence was read at 560 nm excitation, 590 nm emission. Wells with CTB+media only were used for background subtraction, and the fluorescence of compound-treated cells was normalized to the fluorescence of DMSO-treated cells. IC50s were determined using Igor Pro software. All compounds are assayed in duplicate cell plates.

[2] = target: T2, BaF3-FLT3-ITD-F691L (Homo sapiens, UniProt P36888, INS600HVDFREYEYD/F691L, cells depend on it); test: CTB viability assay CS0047, BaF3-FLT3-ITD-F691L; type: cell-based, murine; settings: CellTiter Blue viability, 72 hours
T2 sequence (P36888 with tags, fused parts or gaps INS600HVDFREYEYD/F691L): T1 sequence (P36888 with tags, fused parts or gaps INS600HVDFREYEYD) with F701L
Description: as §1, §2

[3] = Table 3, read-out: Cell Assay: CS0046: BaF3-FLT3-ITD CTB: IC50
[4] = Table 3, read-out: Cell Assay: CS0047: BaF3-FLT3-ITD-F691L CTB: IC50
[5] = BaF3-FLT3-ITD cells, read-out: Cell Assay: CS0046:BaF3-FLT3-ITD CTB:IC50
[6] = BaF3-FLT3-ITD-F691L cells, read-out: Cell Assay: CS0047:BaF3-FLT3-ITD-F691L CTB:IC50
[7] = Table 4, compounds from WO 2011/022473, read-out: Cell Assay: CS0046: BaF3-FLT3-ITD CTB: IC50
[8] = Table 4, compounds from WO 2011/022473, read-out: Cell Assay: CS0047: BaF3-FLT3-ITD-F691L CTB: IC50

| Compound | GI50 [1, 7] | GI50 [2, 8] | further results |
| --- | --- | --- | --- |
| O=C(Cc1ccc(-c2cnc(Nc3ccccc3)nc2)cc1F)Nc1cc(C2(C(F)(F)F)CC2)on1 | – | – | GI50 [1, 3]: 0.152 nM; GI50 [2, 4]: 0.728 nM |
| Cn1cc(Nc2ncc(-c3ccc(CC(=O)Nc4cc(C5(C(F)(F)F)CC5)on4)c(F)c3)cn2)cn1 | – | – | GI50 [1, 3]: 0.0861 nM; GI50 [2, 4]: 0.189 nM |
| Cc1nn(C)c(C)c1Nc1ncc(-c2ccc(CC(=O)Nc3cc(C4(C(F)(F)F)CC4)on3)c(F)c2)cn1 [P-029, 2-[2-fluoro-4-[2-[(l,3,5-trimethylpyrazol-4-yl)amino]pyrimidin-5-yl]phenyl]-N-[5-[1-(trifluoromethyl)cyclopropyl]isoxazol-3-yl]acetamide] | – | – | GI50 [1, 5]: 10 to 50 nM; GI50 [2, 6]: 10 to 50 nM |
| O=C(O)Cn1cc(Nc2ncc(-c3ccc(CC(=O)Nc4cc(C5(C(F)(F)F)CC5)on4)c(F)c3)cn2)cn1 [P-078, 2-[4-[[5-[3-fluoro-4-[2-oxo-2-[[5-[1-(trifluoromethyl)cyclopropyl]isoxazol-3-yl]amino]ethyl]phenyl]pyrimidin-2-yl]amino]pyrazol-1-yl]acetic acid] | – | – | GI50 [1, 5]: 10 to 50 nM; GI50 [2, 6]: 10 to 50 nM |
| CC(C)(c1cc(NC(=O)Cc2ccc(-c3ccc(NCCN4CCOCC4)nc3)cc2)no1)C(F)(F)F [reference compound] | 0.597 nM | 73.9 nM | – |
| CNc1ccc(-c2ccc(CC(=O)Nc3cc(C(C)(C)C)on3)cc2)cn1 [reference compound] | 0.146 nM | 43.2 nM | – |
| CCNc1ccc(-c2ccc(CC(=O)Nc3cc(C(C)(C)C)on3)cc2)cn1 [reference compound] | 0.252 nM | 45.4 nM | – |
| CC(C)(C)c1cc(NC(=O)Nc2ccc(-c3cnc(NC4CCOCC4)nc3)cn2)no1 [reference compound] | 6.6 nM | 110 nM | – |
| CC(C)(C)c1cc(NC(=O)Nc2ccc(-c3cnc(NC4CC4)nc3)cn2)no1 [reference compound] | 5.91 nM | 77.8 nM | – |

Source: patent US10829484B2, “Compounds and methods for kinase modulation, and indications therefor” (Plexxikon Inc., priority 2015, dated 2020)
